Data on 79 molecules can be found in ChEMBL document CHEMBL3714766, “Tetrahydroisoquinoline compounds and their use as pyruvate dehydrogenase kinase inhibitors” (2015).

The assay has as its target Pyruvate dehydrogenase kinase (Homo sapiens, UniProt Q15119+Q15120+Q16654+Q15118). The assay can be described thus: Binding affinity to pyruvate dehydrogenase kinase (unknown origin) by VER-00160364 probe based fluorescence polarization assay.
As for `Cc1cnc(NC2CCCC2)nc1-c1ccc2c(c1)CC[C@H](C)N2C(=O)c1ccc(O)cc1O`, the IC50 is 1000 nM.
In the case of `C[C@H]1CCc2cc(-c3nc4ccccc4nc3C(F)(F)F)ccc2N1C(=O)c1ccc(O)cc1O` it was 100 nM.
The molecule `COc1ccc(-c2ccc3c(c2)CC[C@H](C)N3C(=O)c2ccc(O)cc2O)c(Cl)c1` showed a half-maximal inhibitory concentration (IC50) of 1000 nM.
In turn, `C[C@H]1CCc2cc(-c3ccc(N4CCCC4)nn3)ccc2N1C(=O)c1ccc(O)cc1O` registered an IC50 of 100 nM.
As for `Cc1nccn1-c1ccc(-c2ccc3c(c2)CC[C@H](C)N3C(=O)c2ccc(O)cc2O)nn1`, the figure is 100 nM; as for `C[C@H]1CCc2cc(-c3nc(C(F)(F)F)nc4ccccc34)ccc2N1C(=O)c1ccc(O)cc1O`, 1000 nM.
As for `C[C@H]1CCc2cc(-c3cc4occc4cn3)ccc2N1C(=O)c1ccc(O)cc1O`, the figure is 100 nM.
Molecule `C[C@H]1CCc2cc(-c3nc(-c4ccsc4)nc4ccccc34)ccc2N1C(=O)c1ccc(O)cc1O` yielded an IC50 of 1000 nM.
On to `C[C@H]1CCc2cc(-c3nc4ccc(Cl)cc4cc3CO)ccc2N1C(=O)c1ccc(O)cc1O`, for which the IC50 was found to be 100 nM.
As for `C[C@H]1CCc2cc(-c3cc4cncnc4[nH]3)ccc2N1C(=O)c1ccc(O)cc1O`, the figure is 10 nM.
In turn, `CNc1ccc(-c2ccc3c(c2)CC[C@H](C)N3C(=O)c2ccc(O)cc2O)c(C)n1` showed an IC50 of 100 nM.
As for `Cc1cncnc1-c1ccc2c(c1)CC[C@H](C)N2C(=O)c1ccc(O)cc1O`, the figure is 100 nM; as for `Cc1cc(Cl)nnc1-c1ccc2c(c1)CC[C@H](C)N2C(=O)c1ccc(O)cc1O`, 10 nM; as for `Cc1cc(-c2ccc3c(c2)CC[C@H](C)N3C(=O)c2ccc(O)cc2O)nnc1Cl`, 100 nM.
As for `C[C@H]1CCc2cc(-c3nncc4ccccc34)ccc2N1C(=O)c1ccc(O)cc1O`, the figure is 100 nM.
The molecule `C[C@H]1CCc2cc(-c3ncnc4ccc(Cl)cc34)ccc2N1C(=O)c1ccc(O)cc1O` showed an IC50 of 100 nM.
As for `Cc1cc(S(=O)(=O)N2CCCC2)cnc1-c1ccc2c(c1)CC[C@H](C)N2C(=O)c1ccc(O)cc1O`, the figure is 100 nM.
On to `CCc1nccnc1-c1ccc2c(c1)CC[C@H](C)N2C(=O)c1ccc(O)cc1O`, for which the IC50 worked out at 100 nM.
As for `C[C@H]1CCc2cc(-c3nc4cc(Cl)ccc4o3)ccc2N1C(=O)c1ccc(O)cc1O`, the figure is 10000 nM.
For `CC(=O)Nc1ccc(-c2ccc3c(c2)CC[C@H](C)N3C(=O)c2ccc(O)cc2O)c(C)n1`, the IC50 was determined as 100 nM.
For `Cc1cc(S(=O)(=O)N(C)C)cnc1-c1ccc2c(c1)CC[C@H](C)N2C(=O)c1ccc(O)cc1O`, the IC50 came to 10 nM.
In the case of `Cc1cc2cc(F)ccc2nc1-c1ccc2c(c1)CC[C@H](C)N2C(=O)c1ccc(O)cc1O` it was 1000 nM; in that of `C[C@H]1CCc2cc(-c3ccc(OCCN4CCCC4)nn3)ccc2N1C(=O)c1ccc(O)cc1O`, 1000 nM; in that of `Cc1ccc(-c2ccc3c(c2)CC[C@H](C)N3C(=O)c2ccc(O)cc2O)c(Cl)c1`, 1000 nM.
`C[C@H]1CCc2cc(-c3cc4nccnc4cn3)ccc2N1C(=O)c1ccc(O)cc1O` came in with an IC50 of 100 nM.
Regarding `Cc1ccc[n+]([O-])c1-c1ccc2c(c1)CC[C@H](C)N2C(=O)c1ccc(O)cc1O`, the half-maximal inhibitory concentration (IC50) turned out to be 100 nM.
Regarding `CCCc1cncnc1-c1ccc2c(c1)CC[C@H](C)N2C(=O)c1ccc(O)cc1O`, the IC50 is listed as 100 nM.
Turning to `C[C@H]1CCc2cc(-c3ccc(N)nn3)ccc2N1C(=O)c1ccc(O)cc1O`, the half-maximal inhibitory concentration (IC50) is listed as 100 nM.
As for `C[C@H]1CCc2cc(-c3nc(-c4ccccc4)nc4ccccc34)ccc2N1C(=O)c1ccc(O)cc1O`, the figure is 1000 nM.
With `Cc1cc(-c2ccc3c(c2)CC[C@H](C)N3C(=O)c2ccc(O)cc2O)cnc1Cl`, the IC50 was 1000 nM.
`C[C@H]1CCc2cc(-c3ncccc3CO)ccc2N1C(=O)c1ccc(O)cc1O` displayed an IC50 of 100 nM.
Molecule `C[C@H]1CCc2cc(-c3cnc4ccccc4n3)ccc2N1C(=O)c1ccc(O)cc1O` showed an IC50 of 1000 nM.
In the case of `Cc1cc(S(=O)(=O)NCc2ccccc2)cnc1-c1ccc2c(c1)CC[C@H](C)N2C(=O)c1ccc(O)cc1O` it was 10 nM.
In the case of `CCOc1ccc2nc(-c3ccc4c(c3)CC[C@H](C)N4C(=O)c3ccc(O)cc3O)c(C)cc2c1`, the IC50 is 1000 nM.
`C[C@H]1CCc2cc(-c3ccc(-n4ccnc4)nn3)ccc2N1C(=O)c1ccc(O)cc1O` displayed an IC50 of 100 nM.
Take `COc1cc(-c2ccc3c(c2)CC[C@H](C)N3C(=O)c2ccc(O)cc2O)cnc1OC`: the IC50 stood at 100 nM.
In the case of `C[C@H]1CCc2cc(-c3nc(C(N)=O)nc4ccccc34)ccc2N1C(=O)c1ccc(O)cc1O` it was 100 nM; in that of `Cc1cnc(C)c(-c2ccc3c(c2)CC[C@H](C)N3C(=O)c2ccc(O)cc2O)n1`, 100 nM.
In the case of `CCc1cc2ccccc2nc1-c1ccc2c(c1)CC[C@H](C)N2C(=O)c1ccc(O)cc1O` it was 1000 nM.
In the case of `Cc1cn(-c2ccc(-c3ccc4c(c3)CC[C@H](C)N4C(=O)c3ccc(O)cc3O)nn2)cn1` it was 100 nM.
`CSc1nc2c(c(-c3ccc4c(c3)CC[C@H](C)N4C(=O)c3ccc(O)cc3O)n1)CCC2` showed an IC50 of 1000 nM.
Molecule `CCOC(=O)c1nc(-c2ccc3c(c2)CC[C@H](C)N3C(=O)c2ccc(O)cc2O)c2ccccc2n1` came in with a half-inhibitory concentration (IC50) of 100 nM.
On to `Cc1c(-c2ccc3c(c2)CC[C@H](C)N3C(=O)c2ccc(O)cc2O)ccc2[nH]ncc12`, for which the 50% inhibitory concentration (IC50) amounted to 1000 nM.
Consider `C[C@H]1CCc2cc(-c3ccc(-c4ccccc4)cn3)ccc2N1C(=O)c1ccc(O)cc1O`, for which the IC50 was 10000 nM.
In the case of `COc1ccccc1-c1ccc2c(c1)CC[C@H](C)N2C(=O)c1ccc(O)cc1O` it was 100 nM; in that of `COc1ccc2nc(-c3ccc4c(c3)CC[C@H](C)N4C(=O)c3ccc(O)cc3O)c(C)cc2c1`, 100 nM; in that of `CNc1nnc(-c2ccc3c(c2)CC[C@H](C)N3C(=O)c2ccc(O)cc2O)c2ccccc12`, 100 nM.
As for `C[C@H]1CCc2cc(-c3ncncc3C#N)ccc2N1C(=O)c1ccc(O)cc1O`, the figure is 100 nM; as for `CSc1nc(Cl)cc(-c2ccc3c(c2)CC[C@H](C)N3C(=O)c2ccc(O)cc2O)n1`, 1000 nM.
`CC(=O)Nc1ccc(-c2ccc3c(c2)CC[C@H](C)N3C(=O)c2ccc(O)cc2O)c(C)c1` gave an IC50 of 100 nM.
As for `Cc1cc2cc(Cl)ccc2nc1-c1ccc2c(c1)CC[C@H](C)N2C(=O)c1ccc(O)cc1O`, the figure is 1000 nM; as for `C[C@H]1CCc2cc(-c3cccc(C#N)c3)ccc2N1C(=O)c1ccc(O)cc1O`, 1000 nM; as for `C[C@H]1CCc2cc(-c3ccncc3C(F)(F)F)ccc2N1C(=O)c1ccc(O)cc1O`, 100 nM.
In the case of `C[C@H]1CCc2cc(-c3ccc(-c4ccccc4Cl)cn3)ccc2N1C(=O)c1ccc(O)cc1O` it was 10000 nM.
Take `NC(=O)COc1ccc2c(c1)CCCN2C(=O)c1ccc(O)cc1O`: the IC50 came out at 1000 nM.
In the case of `C[C@H]1CCc2cc(-c3nc4ccccc4cc3CO)ccc2N1C(=O)c1ccc(O)cc1O` it was 100 nM; in that of `C[C@H]1CCc2cc(-c3ccccc3Cl)ccc2N1C(=O)c1ccc(O)cc1O`, 1000 nM.
In the case of `CCOC(=O)c1nc(C)nc(-c2ccc3c(c2)CC[C@H](C)N3C(=O)c2ccc(O)cc2O)c1C` it was 1000 nM; in that of `Cc1nc(NS(C)(=O)=O)ccc1-c1ccc2c(c1)CC[C@H](C)N2C(=O)c1ccc(O)cc1O`, 100 nM; in that of `Cc1cc(S(=O)(=O)NCc2ccn(C)n2)cnc1-c1ccc2c(c1)CC[C@H](C)N2C(=O)c1ccc(O)cc1O`, 100 nM.
`Cc1ccc(C)c(-c2ccc3c(c2)CC[C@H](C)N3C(=O)c2ccc(O)cc2O)n1` had an IC50 of 100 nM.
As for `Cc1cc(-c2ccc3c(c2)CC[C@H](C)N3C(=O)c2ccc(O)cc2O)cnc1N`, the figure is 100 nM.
`Cc1cc(S(=O)(=O)N2CCCCC2)cnc1-c1ccc2c(c1)CC[C@H](C)N2C(=O)c1ccc(O)cc1O` gave an IC50 of 10 nM.
Consider `Cc1cc(CNc2ccc(-c3ccc4c(c3)CC[C@H](C)N4C(=O)c3ccc(O)cc3O)c(C)n2)on1`, for which the IC50 came out at 100 nM.
Consider `C[C@H]1CCc2cc(-c3ccc(Cl)cc3Cl)ccc2N1C(=O)c1ccc(O)cc1O`, for which the IC50 was found to be 1000 nM.
As for `COc1cc2ncnc(-c3ccc4c(c3)CC[C@H](C)N4C(=O)c3ccc(O)cc3O)c2cc1OC`, the figure is 1000 nM.
As for `CNc1nccc(-c2ccc3c(c2)CC[C@H](C)N3C(=O)c2ccc(O)cc2O)n1`, the figure is 100 nM.
In the case of `Cc1cnc(OCCN(C)C)nc1-c1ccc2c(c1)CC[C@H](C)N2C(=O)c1ccc(O)cc1O` it was 100 nM; in that of `COc1ccc(OC)c(-c2ccc3c(c2)CC[C@H](C)N3C(=O)c2ccc(O)cc2O)c1`, 1000 nM; in that of `COc1cc(-c2ccc3c(c2)CC[C@H](C)N3C(=O)c2ccc(O)cc2O)ncn1`, 1000 nM.
As to `C[C@H]1CCc2cc(-c3ccc(NC4CC4)nn3)ccc2N1C(=O)c1ccc(O)cc1O`, the half-maximal inhibitory concentration (IC50) was determined as 1000 nM.
As for `Cc1nc(-c2ccc3c(c2)CC[C@H](C)N3C(=O)c2ccc(O)cc2O)c2ccccc2n1`, the figure is 100 nM; as for `Cc1ncc(C)c(-c2ccc3c(c2)CC[C@H](C)N3C(=O)c2ccc(O)cc2O)n1`, 10 nM; as for `Cc1cc2cccc(C)c2nc1-c1ccc2c(c1)CC[C@H](C)N2C(=O)c1ccc(O)cc1O`, 1000 nM.
Take `C[C@H]1CCc2cc(-c3ccc(N4CCOCC4)nn3)ccc2N1C(=O)c1ccc(O)cc1O`: the 50% inhibitory concentration (IC50) turned out to be 1000 nM.
`Cc1cc(S(=O)(=O)NCCN(C)C)cnc1-c1ccc2c(c1)CC[C@H](C)N2C(=O)c1ccc(O)cc1O`: the IC50 worked out at 10 nM.
In the case of `Cc1cc2ccc(F)cc2nc1-c1ccc2c(c1)CC[C@H](C)N2C(=O)c1ccc(O)cc1O` it was 100 nM; in that of `C[C@H]1CCc2cc(-c3ccc(Cl)nc3)ccc2N1C(=O)c1ccc(O)cc1O`, 1000 nM.
The molecule `Cc1nccnc1-c1ccc2c(c1)CC[C@H](C)N2C(=O)c1ccc(O)cc1O` came in with a half-inhibitory concentration (IC50) of 100 nM.
